In patent US20240358693A1, “METHODS OF TREATING PAIN” (Aisa Pharma, Inc., priority 2023, published 2024):

Test system: participants with SSc-RP
Experiment: Average duration of weekly RP attacks (minutes)
Type: in vivo, human
From the text: The absolute change in average duration of weekly RP attacks from baseline to the end of each dosing period was and will be a secondary outcome variable. The sponsor-developed participant-informed diary was and will be used to record data. Average duration of weekly RP attacks is defined as the total duration of RP attacks divided by total number of RP attacks within the last 7 days of each dosing period. Total duration of RP attacks during the last 7 days of screening period divided by the total number of RP attacks will be used as baseline for the analysis of all periods. The variable will be calculated similar to frequency data as before.

[1] = Cilnidipine 10 mg, n=1, Excluding Outliers, ITT Part A
[2] = Cilnidipine 10 mg, n=1, ITT Part A
[3] = Cilnidipine 10 mg, Baseline RCS subgroup 1 (unnamed), ITT Part A
[4] = Cilnidipine 10 mg, Excluding Outliers, Baseline RCS subgroup 1 (unnamed), ITT Part A
[5] = Cilnidipine 10 mg, Excluding Outliers, ITT Population - Part A
[6] = Cilnidipine 10 mg, Excluding Outliers, by Baseline RCS, subgroup 1, ITT Population - Part A
[7] = Cilnidipine 10 mg, by Baseline RCS, subgroup 1, ITT Population - Part A
[8] = Cilnidipine 20 mg, n=2, Excluding Outliers, ITT Part A
[9] = Cilnidipine 20 mg, n=2, ITT Part A
[10] = Cilnidipine 20 mg, Baseline RCS subgroup 1 (unnamed), ITT Part A
[11] = Cilnidipine 20 mg, Excluding Outliers, Baseline RCS subgroup 1 (unnamed), ITT Part A

COCCOC(=O)C1=C(C)NC(C)=C(C(=O)OC/C=C/c2ccccc2)C1c1cccc([N+](=O)[O-])c1 (stereo not shown) [Cilnidipine, cilnidipine]
Average Duration of Weekly Symptomatic RP Attacks, Change from Baseline, Mean [1]: -16.74 min | Average Duration of Weekly Symptomatic RP Attacks, Change from Baseline, Median [1]: -16.74 min | Average Duration of Weekly Symptomatic RP Attacks, Mean [1]: 31.64 min | Average Duration of Weekly Symptomatic RP Attacks, Median [1]: 31.64 min | Average Duration of Weekly Symptomatic RP Attacks, Percent Change from Baseline, Mean [1]: −34.60% | Average Duration of Weekly Symptomatic RP Attacks, Percent Change from Baseline, Median [1]: −34.60% | Average Duration of Weekly Symptomatic RP Attacks, Change from Baseline, Mean [2]: -16.74 min | Average Duration of Weekly Symptomatic RP Attacks, Change from Baseline, Median [2]: -16.74 min | Average Duration of Weekly Symptomatic RP Attacks, Mean [2]: 31.64 min | Average Duration of Weekly Symptomatic RP Attacks, Median [2]: 31.64 min | Average Duration of Weekly Symptomatic RP Attacks, Percent Change from Baseline, Mean [2]: −34.60% | Average Duration of Weekly Symptomatic RP Attacks, Percent Change from Baseline, Median [2]: −34.60% | Average Duration of Weekly Symptomatic RP Attacks, Change from Baseline, Mean [3]: -16.74 min | Average Duration of Weekly Symptomatic RP Attacks, Change from Baseline, Median [3]: -16.74 min | Average Duration of Weekly Symptomatic RP Attacks, Mean [3]: 31.64 min | Average Duration of Weekly Symptomatic RP Attacks, Median [3]: 31.64 min | Average Duration of Weekly Symptomatic RP Attacks, Percent Change from Baseline, Mean [3]: −34.60% | Average Duration of Weekly Symptomatic RP Attacks, Percent Change from Baseline, Median [3]: −34.60% | Average Duration of Weekly Symptomatic RP Attacks, Change from Baseline, Mean [4]: -16.74 min | Average Duration of Weekly Symptomatic RP Attacks, Change from Baseline, Median [4]: -16.74 min | Average Duration of Weekly Symptomatic RP Attacks, Mean [4]: 31.64 min | Average Duration of Weekly Symptomatic RP Attacks, Median [4]: 31.64 min | Average Duration of Weekly Symptomatic RP Attacks, Percent Change from Baseline, Mean [4]: −34.60% | Average Duration of Weekly Symptomatic RP Attacks, Percent Change from Baseline, Median [4]: −34.60% | Average Duration of Weekly RP Attacks (All Attacks) Change from Baseline, Mean [5]: -8.48 min | Average Duration of Weekly RP Attacks (All Attacks) Change from Baseline, Median [5]: -8.48 min | Average Duration of Weekly RP Attacks (All Attacks) Percent Change from Baseline, Mean [5]: −21.20% | Average Duration of Weekly RP Attacks (All Attacks) Percent Change from Baseline, Median [5]: −21.20% | Average Duration of Weekly RP Attacks (All Attacks), Mean [5]: 31.52 min | Average Duration of Weekly RP Attacks (All Attacks), Median [5]: 31.52 min | Average Duration of Weekly RP Attacks (All Attacks) Change from Baseline, Mean [6]: -8.48 min | Average Duration of Weekly RP Attacks (All Attacks) Change from Baseline, Median [6]: -8.48 min | Average Duration of Weekly RP Attacks (All Attacks) Percent Change from Baseline, Mean [6]: −21.20% | Average Duration of Weekly RP Attacks (All Attacks) Percent Change from Baseline, Median [6]: −21.20% | Average Duration of Weekly RP Attacks (All Attacks), Mean [6]: 31.52 min | Average Duration of Weekly RP Attacks (All Attacks), Median [6]: 31.52 min | Average Duration of Weekly RP Attacks (All Attacks) Change from Baseline, Mean (Cilnidipine 10 mg, ITT Part A): -8.48 min | Average Duration of Weekly RP Attacks (All Attacks) Change from Baseline, Median (Cilnidipine 10 mg, ITT Part A): -8.48 min | Average Duration of Weekly RP Attacks (All Attacks) Percent Change from Baseline, Mean (Cilnidipine 10 mg, ITT Part A): −21.20% | Average Duration of Weekly RP Attacks (All Attacks) Percent Change from Baseline, Median (Cilnidipine 10 mg, ITT Part A): −21.20% | Average Duration of Weekly RP Attacks (All Attacks), Mean (Cilnidipine 10 mg, ITT Part A): 31.52 min | Average Duration of Weekly RP Attacks (All Attacks), Median (Cilnidipine 10 mg, ITT Part A): 31.52 min | Average Duration of Weekly RP Attacks (All Attacks) Change from Baseline, Mean [7]: -8.48 min | Average Duration of Weekly RP Attacks (All Attacks) Change from Baseline, Median [7]: -8.48 min | Average Duration of Weekly RP Attacks (All Attacks) Percent Change from Baseline, Mean [7]: −21.20% | Average Duration of Weekly RP Attacks (All Attacks) Percent Change from Baseline, Median [7]: −21.20% | Average Duration of Weekly RP Attacks (All Attacks), Mean [7]: 31.52 min | Average Duration of Weekly RP Attacks (All Attacks), Median [7]: 31.52 min | Average Duration of Weekly Symptomatic RP Attacks, Change from Baseline, Mean [8]: -3.13 min | Average Duration of Weekly Symptomatic RP Attacks, Change from Baseline, Median [8]: -3.13 min | Average Duration of Weekly Symptomatic RP Attacks, Mean [8]: 16.73 min | Average Duration of Weekly Symptomatic RP Attacks, Median [8]: 16.73 min | Average Duration of Weekly Symptomatic RP Attacks, Percent Change from Baseline, Mean [8]: −31.05% | Average Duration of Weekly Symptomatic RP Attacks, Percent Change from Baseline, Median [8]: −31.05% | Average Duration of Weekly Symptomatic RP Attacks, Change from Baseline, Mean [9]: -3.13 min | Average Duration of Weekly Symptomatic RP Attacks, Change from Baseline, Median [9]: -3.13 min | Average Duration of Weekly Symptomatic RP Attacks, Mean [9]: 16.73 min | Average Duration of Weekly Symptomatic RP Attacks, Median [9]: 16.73 min | Average Duration of Weekly Symptomatic RP Attacks, Percent Change from Baseline, Mean [9]: −31.05% | Average Duration of Weekly Symptomatic RP Attacks, Percent Change from Baseline, Median [9]: −31.05% | Average Duration of Weekly Symptomatic RP Attacks, Change from Baseline, Mean [10]: -3.13 min | Average Duration of Weekly Symptomatic RP Attacks, Change from Baseline, Median [10]: -3.13 min | Average Duration of Weekly Symptomatic RP Attacks, Mean [10]: 16.73 min | Average Duration of Weekly Symptomatic RP Attacks, Median [10]: 16.73 min | Average Duration of Weekly Symptomatic RP Attacks, Percent Change from Baseline, Mean [10]: −31.05% | Average Duration of Weekly Symptomatic RP Attacks, Percent Change from Baseline, Median [10]: −31.05% | Average Duration of Weekly Symptomatic RP Attacks, Change from Baseline, Mean [11]: -3.13 min | Average Duration of Weekly Symptomatic RP Attacks, Change from Baseline, Median [11]: -3.13 min | Average Duration of Weekly Symptomatic RP Attacks, Mean [11]: 16.73 min | Average Duration of Weekly Symptomatic RP Attacks, Median [11]: 16.73 min | Average Duration of Weekly Symptomatic RP Attacks, Percent Change from Baseline, Mean [11]: −31.05% | Average Duration of Weekly Symptomatic RP Attacks, Percent Change from Baseline, Median [11]: −31.05% | Average Duration of Weekly RP Attacks (All Attacks) Change from Baseline, Mean (Cilnidipine 20 mg, Excluding Outliers, ITT Population - Part A): -1.09 min
